Four molecules from ChEMBL document CHEMBL1201862, “PubChem BioAssay data set” (2004) can be followed below.

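These data come from cells grown in 96-well plates and exposed to compound for 48 hours at five concentrations. Abbreviation: GI50, concentration required for 50% inhibition of growth.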 The source made the active and inactive calls. Cut-off read from the data, not from the text of the source: active = GI50 up to about 1.1 µM and inactive = higher. Some results are limits rather than exact numbers.

Among the test systems are U-251; IGROV-1; LOX IMVI; SK-MEL-2; SNB-19; RXF 393; RPMI-8226; MDA-MB-435; UO-31; NCI/ADR-RES; MCF7; ACHN; SF-268; UACC-62; SW-620; NCI-H226; BT-549; OVCAR-5; HL-60; SK-MEL-28.
Holding throughout (assay): NCI anticancer screen, dose series, 48 h

For `Clc1ccc(Cc2nc3ccccc3nc2-c2cccc(Br)c2)cc1`, the GI50 in the assay on U-251 is 7.41 µM (inactive); in the assay with IGROV-1, 1.8 µM (inactive); in the assay with LOX IMVI, 1.97 µM (inactive); with SK-MEL-2 it was 4.67 µM (inactive); with SNB-19 it was 1.52 µM (inactive); with RXF 393, 2.47 µM (inactive). The GI50 with RPMI-8226 was 1.64 µM (inactive); in the assay on MDA-MB-435, 2.14 µM (inactive); in the assay with UO-31, 1.87 µM (inactive); with NCI/ADR-RES, 3.08 µM (inactive); in the assay with MCF7, 3.17 µM (inactive); in the assay on ACHN, 1.91 µM (inactive). Further, the GI50 in the assay on SF-268 was 19.8 µM (inactive); in the assay on UACC-62 it was 1.91 µM (inactive); with SW-620 it was 2.04 µM (inactive); in the assay on NCI-H226, 16.9 µM (inactive); in the assay with BT-549 it was 3.5 µM (inactive); in the assay with OVCAR-5, 4.19 µM (inactive). Further, the GI50 with HL-60 was 2.84 µM (inactive).

Consider `NC(=O)C1CCN(Cc2c(Cl)c(Cl)c(CN3CCC(C(N)=O)CC3)c(Cl)c2Cl)CC1`, for which the GI50 with U-251 was 34.8 µM (inactive); in the assay on LOX IMVI, > 100 µM (inactive); in the assay with SK-MEL-2 it was 42.9 µM (inactive); with SNB-19, 43.9 µM (inactive); in the assay with RXF 393, 52.6 µM (inactive); in the assay on RPMI-8226, > 100 µM (inactive). Besides, the GI50 in the assay with MDA-MB-435 was > 100 µM (inactive); with UO-31, 63.5 µM (inactive); with SK-MEL-28, > 100 µM (inactive); with NCI/ADR-RES, > 100 µM (inactive); in the assay on MCF7, > 100 µM (inactive); in the assay on ACHN it was > 100 µM (inactive). Further, the GI50 in the assay on SF-268 was 44.7 µM (inactive); in the assay on UACC-62 it was > 100 µM (inactive); in the assay on SW-620 it was > 100 µM (inactive); with NCI-H226, > 100 µM (inactive); in the assay with BT-549, > 100 µM (inactive); in the assay with OVCAR-5, > 100 µM (inactive). In addition, the GI50 with HL-60 is > 100 µM (inactive).

For `CSC1=NN(c2ccccc2)C(=O)C1=C(SC)SC`, the GI50 is 22.2 µM (inactive) in the assay with U-251; 20.2 µM (inactive) in the assay on LOX IMVI; 22.8 µM (inactive) with SK-MEL-2; 23.2 µM (inactive) with SNB-19; 13.9 µM (inactive) in the assay on RXF 393; 14.3 µM (inactive) with RPMI-8226. Moreover, the GI50 in the assay on MDA-MB-435 is 31.9 µM (inactive); with UO-31 it was 12.1 µM (inactive); with SK-MEL-28, 30.5 µM (inactive); in the assay with NCI/ADR-RES it was 18.4 µM (inactive); with MCF7 it was 19.2 µM (inactive); in the assay on SF-268 it was 26.1 µM (inactive). Further, the GI50 with UACC-62 is 21.2 µM (inactive); in the assay with SW-620, 33.5 µM (inactive); in the assay on NCI-H226, 16.1 µM (inactive); in the assay with BT-549, 27.4 µM (inactive); in the assay on OVCAR-5, 31.6 µM (inactive); in the assay with HL-60, 15.9 µM (inactive).

Take `CN(CCCNC(=O)c1nn(C)c2c1Cc1ccccc1-2)CCCNC(=O)c1nn(C)c2c1Cc1ccccc1-2`: the GI50 in the assay on U-251 was 12.5 µM (inactive); in the assay on IGROV-1, 15.3 µM (inactive); in the assay with LOX IMVI, 2.49 µM (inactive); in the assay on SK-MEL-2 it was 16 µM (inactive); in the assay with SNB-19, 9.53 µM (inactive); in the assay on RXF 393 it was 13.9 µM (inactive). Besides, the GI50 was 13.3 µM (inactive) in the assay with RPMI-8226; 10.8 µM (inactive) in the assay with MDA-MB-435; 0.614 µM (active) with UO-31; 20.1 µM (inactive) in the assay with SK-MEL-28; 24.4 µM (inactive) in the assay on NCI/ADR-RES; 15 µM (inactive) with MCF7. For the same molecule, the GI50 with ACHN was 16.7 µM (inactive); in the assay on SF-268, 19.2 µM (inactive); in the assay on UACC-62 it was 19.4 µM (inactive); with SW-620, 10.1 µM (inactive); in the assay with BT-549, 21 µM (inactive); in the assay on OVCAR-5 it was 18.3 µM (inactive). For the same molecule, the GI50 in the assay with HL-60 was 5.28 µM (inactive).
